Data as given in patent publication US12501868B2, “Haploid induction compounds and methods for use thereof” (WIMI BIOTECHNOLOGY (HAINAN) CO., LTD., priority 2020, dated 2025).
Values joined by “and” are separate entries in the source; they are usually repeats but may differ in a detail not shown here. Equal values may be shown once. Read-outs that look alike come from different tables or passages of the source.

Columns and labels:
maize pollen = experiment: Relative ROS level in maize pollen (ROS detection kit, fluorometry); assay type: cell-based
Experimental: The red channel or bright channel of the photo was analyzed, and the ROS level was represented by the light intensity of the wavelength with the largest proportion. The relative ROS level in a reproductive tissue refers to a ratio of the ROS level of the reproductive tissue to the ROS level in the control group (40% sucrose).
Taking maize pollen as an example, the experiment of a series of compounds that may affect the ROS level in the maize pollen was tested.
All reagents are dissolved in 40% sucrose. The relative ROS levels were from 6-7 measurements.

[1] = system: sperm cells of maize pollen; experiment: DNA fragmentation in sperm cells of treated maize pollen (single sperm amplified sequencing); conditions: treated pollen vs 40% sucrose control
Text: DNA fragmentation (which is one of the characteristics of haploid) in the treated pollen is detected.
Release sperm cells on the slide and separate a single sperm for amplified sequencing (Sigma WGA4 kit).

[2] = bright channel, ratio to 40% sucrose control, final concentration as listed per compound in Table 5, 6-7 measurements
[3] = red channel, ratio to 40% sucrose control, final concentration as listed per compound in Table 5, 6-7 measurements

Molecule | Relative ROS Level Bright (maize pollen; [2]) | Relative ROS Level Red (maize pollen; [3]) | further results
C/C1=C/C(=O)O[C@@H]2C[C@@H](CC[C@H](C)/C=C\CC1)O[C@@](O)([C@@H]1CSC(=O)N1)C2 [Compound 8, Latrunculin B] | 1.64 ± 0.10 | 1.66 ± 0.06 | 
PE_18:1 [Compound 23] | 0.92 ± 0.08 | 0.98 ± 0.04 | 
O=P(O)(O)O[C@@H]1[C@H](O)[C@H](O)[C@@H](OP(=O)(O)O)[C@H](OP(=O)(O)O)[C@H]1O [Compound 20, IP3(1,4,5)] | 0.60 ± 0.02 | 0.67 ± 0.03 | 
PA_18:1 [Compound 25] | 0.33 ± 0.02 | 0.34 ± 0.01 | 
Cc1ccc2c(c1)C(=O)C1(O)CCN(c3ccccc3)C1=N2 (stereo not shown) [Compound 10, Blebbistatin] | 1.37 ± 0.14 | 1.35 ± 0.17 | 
Nc1ncnc2c1ncn2[C@@H]1O[C@@H]2COP(=O)(O)O[C@H]2[C@H]1O [Compound 3, cyclic Adenosine Monophosphate] | 2.04 ± 0.15 | 1.97 ± 0.10 | 
O=[N+]([O-])[O-].O=[N+]([O-])[O-].[Ca+2] [Compound 2, calcium nitrate] |  |  | Relative ROS Level Bright (maize pollen; bright channel, final concentration 1.83 mM, ratio to 40% sucrose control): 2.57 ± 0.15; Relative ROS Level Bright (maize pollen; bright channel, final concentration 18.3 mM, ratio to 40% sucrose control): 3.08 ± 0.12; Relative ROS Level Red (maize pollen; red channel, final concentration 1.83 mM, ratio to 40% sucrose control): 2.55 ± 0.21; Relative ROS Level Red (maize pollen; red channel, final concentration 18.3 mM, ratio to 40% sucrose control): 2.97 ± 0.12
PS_18:1 [Compound 22] | 0.65 ± 0.02 | 0.63 ± 0.05 | 
OO [Hydrogen Peroxide, Hydrogen peroxide] |  |  | Proportion of fragmentation compared with control group [1]: higher proportion of fragmentation
PG_18:1 [Compound 26] | 0.32 ± 0.00 | 0.33 ± 0.00 | 
PI_18:1 [Compound 24] | 0.81 ± 0.05 | 0.88 ± 0.06 | 
choline phosphate [Compound 14] |  |  | Relative ROS Level Bright (maize pollen): 1.27 ± 0.11; Relative ROS Level Red (maize pollen): 1.28 ± 0.08
Cn1cc[nH]c1=S [Compound 12, Methimazole] |  |  | Proportion of fragmentation compared with control group [1]: higher proportion of fragmentation
inositol triphosphate [Compound 4] | 1.37 ± 0.00 | 1.39 ± 0.01 | 
O=C(NCCN1CCC(n2c(=O)[nH]c3ccccc32)CC1)c1cc2cc(F)ccc2[nH]1 [Compound 13] | 1.35 ± 0.06 | 1.34 ± 0.07 | 
CC(=O)OC(C)(C)/C=C/C(=O)[C@](C)(O)[C@H]1[C@H](O)C[C@@]2(C)[C@@H]3CC=C4[C@@H](C=C(O)C(=O)C4(C)C)[C@]3(C)C(=O)C[C@]12C [Compound 7, Cucurbitacin E] | 1.37 ± 0.02 | 1.31 ± 0.08 | 
PI(4)P_18:1 [Compound 18] | 0.82 ± 0.10 | 0.84 ± 0.08 | 
PI(3)P_18:1 [Compound 19] | 0.62 ± 0.06 | 0.63 ± 0.05 | 
Lecithin PC_18:1 [Compound 15] | 1.21 ± 0.18 | 1.19 ± 0.17 | 
C/C1=C/C(=O)O[C@@H]2C[C@@H](CC[C@H](C)/C=C\C=C\CC1)O[C@@](O)([C@@H]1CSC(=O)N1)C2 [Compound 9, Latrunculin A] | 1.37 ± 0.00 | 1.35 ± 0.05 | 
O=C(O)CC(O)(CC(=O)O)C(=O)O [Compound 21, Citric acid] | 0.74 ± 0.06 | 0.78 ± 0.02 | 
1,2-Octadecyl Phosphatidylinositol Di-4,5-Phosphate [Compound 5] | 1.06 ± 0.06 | 1.05 ± 0.07 | 
PI(3,5)PP_18:1 [Compound 17] | 0.82 ± 0.11 | 0.88 ± 0.08 | 
c1ccc2c(c1)[I+]c1ccccc1-2 [Compound 11, Diphenyl iodide chloride] | 1.53 ± 0.14 | 1.55 ± 0.13 | 
S=C([S-])OC1CC2CC1C1CCCC21.[K+] (stereo not shown) [Compound 16] | 1.12 ± 0.10 | 1.14 ± 0.10 | 
C/C1=C\[C@H](C)C[C@H](C)OC(=O)C[C@H](c2ccc(O)cc2)NC(=O)[C@@H](Cc2c(Br)[nH]c3ccccc23)N(C)C(=O)[C@H](C)NC(=O)[C@@H](C)C1 [Compound 6, Jasplakinolide] | 1.79 ± 0.16 | 1.77 ± 0.16 | 
[Ca+2].[Cl-].[Cl-] [Compound 1, calcium chloride] |  |  | Relative ROS Level Bright (maize pollen): 4.03 ± 0.24 and 3.11 ± 0.23; Relative ROS Level Red (maize pollen): 3.81 ± 0.21 and 3.01 ± 0.23; effect on relative ROS level (in words) (maize pollen): most obvious effect on the increase of ROS level
